# Data from patent publication US20240270821A1, “GIP/GLP1/GCG TRI-RECEPTOR AGONISTS AND USES THEREOF” (priority 2023, published 2024).
# Read-outs that look alike come from different tables or passages of the source. Starred links: 1 amine or outer side, 2 acyl side, 3 side chain; linkers in the order of their positions; H or OH if unused. Non-standard residues stand in square brackets, D forms with d. Groups on a side chain read outwards from the residue. No end group written: not given here. *: point of attachment. C20 diacid = O=C(O)CCCCCCCCCCCCCCCCCCC(=O)*; C18 diacid = O=C(O)CCCCCCCCCCCCCCCCC(=O)*; Phe(4-CN) = N#Cc1ccc(C[C@H](N)C(=O)O)cc1; αMePhe(2-F) = C[C@](N)(Cc1ccccc1F)C(=O)O; γGlu = O=C(O)[C@H](CCC(=O)[*:2])N[*:1]; NMeY = CN[C@@H](Cc1ccc(O)cc1)C(=O)O; αMe4Pal = C[C@](N)(Cc1ccncc1)C(=O)O; αMeY = C[C@](N)(Cc1ccc(O)cc1)C(=O)O; αMeF = C[C@](N)(Cc1ccccc1)C(=O)O; 4Pal = N[C@@H](Cc1ccncc1)C(=O)O; αMeL = CC(C)C[C@](C)(N)C(=O)O; αMeS = C[C@](N)(CO)C(=O)O; Orn = NCCC[C@H](N)C(=O)O; AEEA = NCCOCCOCC(=O)O; Aib = CC(C)(N)C(=O)O
# Legend:
# Type in all cases: cell-based
# hGcgR = hGcgR (Homo sapiens, UniProt P47871); assay: Functional cAMP activation in the presence of 0.1% casein (no HSA); conditions: read-out: Relative cAMP EC50, hGcgR;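 further: intracellular cAMP rise after 30 min at 37 °C, read by HTRF against a cAMP standard curve, scaled from buffer only (0%) to maximal control ligand response (100%)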
# hGIPR [1] = molecular target: T1, hGIPR (Homo sapiens, UniProt P48546); assay: Functional cAMP activity in the presence of 1% HSA; conditions: read-out: cAMP Rel EC50, hGIPR
# T1 sequence (P48546 22-466): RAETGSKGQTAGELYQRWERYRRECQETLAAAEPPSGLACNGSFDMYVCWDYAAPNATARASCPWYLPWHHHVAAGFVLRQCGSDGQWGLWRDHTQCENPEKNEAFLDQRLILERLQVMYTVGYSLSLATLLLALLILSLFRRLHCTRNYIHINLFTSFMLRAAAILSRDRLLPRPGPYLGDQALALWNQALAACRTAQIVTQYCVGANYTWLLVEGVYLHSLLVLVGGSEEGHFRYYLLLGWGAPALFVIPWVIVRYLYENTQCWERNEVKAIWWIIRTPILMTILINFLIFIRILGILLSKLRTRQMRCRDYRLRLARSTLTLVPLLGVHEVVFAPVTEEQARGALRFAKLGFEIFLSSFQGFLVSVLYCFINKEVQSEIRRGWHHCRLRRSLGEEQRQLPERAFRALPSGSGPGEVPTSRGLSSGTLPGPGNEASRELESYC
# hGIPR [2] = molecular target: T1, hGIPR; assay: Functional cAMP activation in the presence of 0.1% casein (no HSA); conditions: read-out: Relative cAMP EC50, hGIPR;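 further: intracellular cAMP rise after 30 min at 37 °C read by HTRF against a standard curve, scaled between buffer alone (0%) and top control ligand concentration (100%), four-parameter fit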
# human GcgR = human GcgR (Homo sapiens, UniProt P47871); assay: Functional cAMP activity in the presence of 1% HSA; conditions: read-out: cAMP Rel EC50, hGcgR
# hGLP-1R [3] = molecular target: T2, hGLP-1R (Homo sapiens, UniProt P43220); assay: Functional cAMP activation in the presence of 0.1% casein (no HSA); conditions: read-out: Relative cAMP EC50, hGLP-1R;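 further: intracellular cAMP rise after 30 min at 37 °C read by HTRF, normalized between buffer only (0%) and maximal control ligand (100%), four-parameter variable-slope fit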
# hGLP-1R [4] = molecular target: T2, hGLP-1R; assay: Functional cAMP activity in the presence of 1% HSA; conditions: read-out: cAMP Rel EC50, hGLP-1R
# [5] = in the presence of 0.1% casein (no HSA), geometric mean
# [6] = 0.1% casein, no HSA, geometric mean
# T2 sequence (P43220 24-463): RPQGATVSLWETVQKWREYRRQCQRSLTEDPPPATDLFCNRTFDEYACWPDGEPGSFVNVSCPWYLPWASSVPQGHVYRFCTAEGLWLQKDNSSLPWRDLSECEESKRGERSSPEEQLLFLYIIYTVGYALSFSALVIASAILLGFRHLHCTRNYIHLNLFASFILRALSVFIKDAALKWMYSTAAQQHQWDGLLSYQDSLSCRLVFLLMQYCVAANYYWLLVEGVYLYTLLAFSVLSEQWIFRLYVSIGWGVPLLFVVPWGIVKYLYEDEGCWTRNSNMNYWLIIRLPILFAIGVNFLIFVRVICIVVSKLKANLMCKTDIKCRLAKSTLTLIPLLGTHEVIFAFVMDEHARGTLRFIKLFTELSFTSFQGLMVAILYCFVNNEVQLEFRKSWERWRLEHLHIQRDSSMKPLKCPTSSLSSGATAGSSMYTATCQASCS
# Chain of hGcgR (P47871 26-477): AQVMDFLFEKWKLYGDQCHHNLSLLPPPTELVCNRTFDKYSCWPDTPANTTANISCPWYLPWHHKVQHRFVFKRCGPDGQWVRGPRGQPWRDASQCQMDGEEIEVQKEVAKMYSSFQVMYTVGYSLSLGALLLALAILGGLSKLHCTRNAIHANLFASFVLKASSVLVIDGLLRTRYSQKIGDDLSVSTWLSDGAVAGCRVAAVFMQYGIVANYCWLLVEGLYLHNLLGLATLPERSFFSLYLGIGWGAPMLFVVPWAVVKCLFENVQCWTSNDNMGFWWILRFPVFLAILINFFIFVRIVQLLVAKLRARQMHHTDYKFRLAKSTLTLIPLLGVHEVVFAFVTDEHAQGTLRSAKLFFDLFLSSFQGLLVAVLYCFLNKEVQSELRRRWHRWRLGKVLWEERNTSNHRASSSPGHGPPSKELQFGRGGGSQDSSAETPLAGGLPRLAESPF
# Chain of human GcgR (P47871 26-477): as above
Substance,EC50 (hGcgR; [5]),EC50 (hGIPR [1]),EC50 (hGIPR [2]; [5]),EC50 (human GcgR),EC50 (hGLP-1R [3]; [5]),EC50 (hGLP-1R [4]),EC50 (hGcgR; [6]),EC50 (hGIPR [2]; [6]),EC50 (hGLP-1R [3]; [6]),EC50 (hGcgR),EC50 (hGIPR [2]),EC50 (hGLP-1R [3])
H-Y[Aib]QGT[αMePhe(2-F)]TSD[Phe(4-CN)]SKLLDKIAQK([AEEA-γGlu-C20 diacid])AFIEYLIEGGPSSGAPPPSGS-NH2 [Example 363],13.6 nM,91.8 nM,0.375 nM,4080 nM,1.47 nM,217 nM,,,,,,
H-Y[Aib]QGT[αMePhe(2-F)]TSD[Phe(4-CN)]SKLLDKIAQK([AEEA-γGlu-C20 diacid])AFIEYLIEGGPSSGEPPPSGS-NH2 [Example 364],10.2 nM,101 nM,0.457 nM,3190 nM,1.1 nM,260 nM,,,,,,
H-Y[Aib]Q[dA]T[αMePhe(2-F)]TSD[4Pal]SI[αMeL]LD[Orn]K([AEEA-γGlu-C18 diacid])AQ[αMe4Pal]EFI[dE][αMeY]LIEGGPSSGAPPPSGS-NH2 [Example 1206],,7.04 nM,,251 nM,,44.1 nM,1.78 nM,0.0671 nM,0.352 nM,,,
H-Y[Aib]Q[dA]T[αMePhe(2-F)]TSD[4Pal]SI[αMeL]LD[Orn]K([AEEA-γGlu-C18 diacid])AQ[αMe4Pal]EFI[dE][αMeY]LVEGGPSSGAPPPSGS-NH2 [Example 1205],,16.3 nM,,325 nM,,50 nM,3.33 nM,0.152 nM,0.523 nM,,,
H-Y[Aib]Q[dA]T[αMePhe(2-F)]TSD[4Pal][αMeS]I[αMeL]LD[Orn]K([AEEA-γGlu-C18 diacid])AQ[Aib]EFI[dE][αMeY]LIEGGPSSGAPPPSGGGE-NH2 [Example 1223],,9.25 nM,,472 nM,,40.7 nM,2.61 nM,0.0916 nM,0.337 nM,,,
H-Y[Aib]Q[dA]T[αMePhe(2-F)]TSD[4Pal][αMeS]I[αMeL]LD[Orn]K([AEEA-γGlu-C18 diacid])AQ[Aib]EFI[dE][αMeY]LIEGGPSSGAPPPSGSE-NH2 [Example 1222],,12.4 nM,,470 nM,,44.8 nM,2.55 nM,0.0858 nM,0.346 nM,,,
H-Y[Aib]Q[dA]T[αMePhe(2-F)]TSD[4Pal][αMeS]I[αMeL]LD[Orn]K([AEEA-γGlu-C18 diacid])AQ[Aib]EFI[dE][αMeY]LVEGGPSSGAPPPSGS-NH2 [Example 1204],,15.8 nM,,507 nM,,37.4 nM,3.5 nM,0.21 nM,0.338 nM,,,
H-Y[Aib]Q[dA]T[αMePhe(2-F)]TSD[4Pal][αMeS]I[αMeL]LD[Orn]K([AEEA-γGlu-C18 diacid])AQ[αMe4Pal]EFI[dE][αMeY]LIEGGPSSGEPPPSGTGE-NH2 [Example 766],,14.1 nM,,65.7 nM,,32.5 nM,,,,0.689 nM,0.0323 nM,0.273 nM
H-Y[Aib]Q[dA]T[αMePhe(2-F)]TSD[4Pal][αMeS]I[αMeL]LD[Orn]K([γGlu-γGlu-C18 diacid])AQ[Aib]EFI[dE][αMeY]LIEGGPSSGAPPPSGGGE-NH2 [Example 1225],,3.67 nM,,275 nM,,31.4 nM,2.45 nM,0.0531 nM,0.399 nM,,,
H-Y[Aib]Q[dA]T[αMePhe(2-F)]TSD[4Pal][αMeS]I[αMeL]LD[Orn]K([γGlu-γGlu-C18 diacid])AQ[Aib]EFI[dE][αMeY]LIEGGPSSGAPPPSGSE-NH2 [Example 1224],,3.78 nM,,208 nM,,28.4 nM,2.32 nM,0.048 nM,0.379 nM,,,
H-[NMeY][Aib]QGTFTSD[4Pal][αMeS]Q[αMeL]LD[Orn]K([dE-γGlu-C18 diacid])AQ[αMe4Pal]QFIQ[αMeY]LIE[Aib]GPSSGAPPPSGGGE-NH2 [Example 1134],2.57 nM,2.41 nM,0.0391 nM,180 nM,0.957 nM,78.9 nM,,,,,,
H-[NMeY][Aib]QGT[αMeF]TSDYSILLDKIAAK([AEEA-AEEA-γGlu-C20 diacid])AFIEYLIEGGPSSGEPPPSEG-NH2 [Example 299],2.54 nM,40.2 nM,0.137 nM,1700 nM,0.963 nM,380 nM,,,,,,
Y[Aib]QGTFTSDFSK[αMeL]LDKK([AEEA-γGlu-C18 diacid])AQ[Aib]AFIEYLIE[Aib]GPSSGAPPPSGS-NH2 [Example 797],3.78 nM,16.7 nM,0.0781 nM,963 nM,0.449 nM,102 nM,,,,,,
Y[Aib]QGTFTSDFSK[αMeL]LDKK([AEEA-γGlu-C20 diacid])AQ[Aib]AFIEYLLEGGPSSGEPPPTEG-NH2 [Example 36],4.32 nM,170 nM,0.482 nM,1330 nM,3.57 nM,1360 nM,,,,,,
Y[Aib]QGTFTSDFSK[αMeL]LDKK([AEEA-γGlu-C20 diacid])AQ[Aib]AFIQWLLEGGPSSGAPPPSEG-NH2 [Example 39],10.1 nM,30.5 nM,0.299 nM,1090 nM,2.13 nM,260 nM,,,,,,
Y[Aib]QGTFTSDFSK[αMeL]LDKK([AEEA-γGlu-C20 diacid])AQ[Aib]AFIQYLLAGGPSSGEPPPSEG-NH2 [Example 27],8.91 nM,72.3 nM,0.41 nM,1180 nM,2.33 nM,464 nM,,,,,,
Y[Aib]QGTFTSDFS[Orn][αMeL]LDKK([AEEA-γGlu-C18 diacid])AQ[Aib]AFIEWLLEGGHSSGAPPPGGE-NH2 [Example 273],6.96 nM,21.8 nM,0.243 nM,1770 nM,4.02 nM,516 nM,,,,,,
Y[Aib]QGTFTSDFS[Orn][αMeL]LDKK([AEEA-γGlu-C18 diacid])AQ[Aib]AFIEWLLEGGHSSGEPPPSGE-NH2 [Example 124],2.92 nM,54.7 nM,0.344 nM,567 nM,6.14 nM,801 nM,,,,,,
Y[Aib]QGTFTSDFS[Orn][αMeL]LDKK([AEEA-γGlu-C18 diacid])AQ[Aib]AFIEYLIE[Aib]GPSSGAPPPSGS-NH2 [Example 796],5.3 nM,17.5 nM,0.098 nM,1000 nM,0.602 nM,125 nM,,,,,,
Y[Aib]QGTFTSDFS[Orn][αMeL]LDKK([AEEA-γGlu-γGlu-C18 diacid])AQ[Aib]AFIEYLLAGGPSSGEPPPSGS-NH2 [Example 153],14.7 nM,16.8 nM,0.218 nM,1210 nM,7.09 nM,488 nM,,,,,,
Y[Aib]QGTFTSDFS[Orn][αMeL]LDKK([γGlu-γGlu-C18 diacid])AQ[Aib]AFIEYLLEGGPSSGAPPPSGT-NH2 [Example 260],5.04 nM,12.4 nM,0.251 nM,162 nM,3.85 nM,160 nM,,,,,,
